Test results reported in ChEMBL document CHEMBL5579891, “A Glycyrrhizin Derivative with a More Potent Inhibitory Activity against High-Mobility Group Box 1 Efficiently Discovered by Chemical Synthesis Inspired by the Bioconversion Products of an Endophytic Fungus Isolated from Licorice” (J Med Chem, 2024).
Activity calls are given as the source filed them. The calls are words filed in the database; no cut-off is given here.

What was measured:
Peritoneal macrophage [1] = experiment: Suppression of HMGB1-induced IL-1beta mRNA expression in male ddY mouse Peritoneal macrophage cells at 10 uM incubated for 2 hrs by qRT-PCR analysis; assay type: functional, cell-based
RAW264.7 [2] = experiment: Cytotoxicity against mouse RAW264.7 cells at 100 uM measured after 2 hrs by LDH assay; assay type: toxicity, cell-based; conditions: raw264.7, 2 h
RAW264.7 [3] = experiment: Cytotoxicity against mouse RAW264.7 cells at 30 to 100 uM measured after 2 hrs by LDH assay; assay type: toxicity, cell-based; conditions: raw264.7, 2 h, dose 30-100 µM
Peritoneal macrophage [4] = experiment: Suppression of HMGB1-induced IL-1beta mRNA expression in male ddY mouse Peritoneal macrophage cells at 10 nM incubated for 2 hrs in presence of RU486 by qRT-PCR analysis; assay type: functional, cell-based
[5] = Drug uptake in brain of male ddY mouse model of collagenase induced intracerebral hemorrhage assessed as appearance of unchanged form of drug by measuring retention time at 100 mg/kg, po pretreated with collagenase for 20 mins followed by compound administration via oral gavage and measured at 24 hrs by LC-MS analysis; assay type: ADME, organism-based; conditions: in vivo
Mus musculus [6] = experiment: Effect on brain water content in cerebellum in male ddY mouse model of collagenase induced intracerebral hemorrhage at 100 mg/kg, po pretreated with collagenase for 20 mins followed by compound administration via oral gavage and measured at 24 hrs; assay type: functional, organism-based
Mus musculus [7] = experiment: Neuroprotective activity in male ddY mouse model of collagenase induced intracerebral hemorrhage assessed as rescue of ICH-induced neuronal loss by measuring increase in NeuN-positive neurons in periphery of […] at 100 mg/kg, po pretreated with collagenase for 20 mins followed by compound administration via oral gavage and measured at 24 hrs by immunohistochemical staining based analysis; assay type: functional, organism-based
Mus musculus [8] = experiment: Suppression of IL-1beta mRNA expression in po dosed male ddY mouse model of collagenase induced intracerebral hemorrhage pretreated with collagenase for 20 mins followed by compound administration via oral gavage and measured at 24 hrs by qRT-PCR analysis; assay type: functional, organism-based; conditions: dose 50-100 mg/kg
Mus musculus [9] = experiment: (§1) In vivo inhibition of HMGB1 in male ddY mouse model of collagenase induced intracerebral hemorrhage assessed as reduction in AQP4 protein level at 100 mg/kg, po pretreated with collagenase for 20 mins followed by compound administration via oral gavage and measured at 24 hrs by Western blot analysis; assay type: functional, organism-based
Mus musculus [10] = experiment: as §1, with “brain water content in ipsilateral hemisphere” for “AQP4 protein level”, “hrs” for “hrs by Western blot analysis”; assay type: functional, organism-based
Peritoneal macrophage [11] = experiment: Suppression of HMGB1-induced IL-1beta mRNA expression in male ddY mouse Peritoneal macrophage cells at 10 uM incubated for 2 hrs in presence of RU486 by qRT-PCR analysis; assay type: functional, cell-based
Mus musculus [12] = experiment: Effect on brain water content in contralateral hemisphere in male ddY mouse model of collagenase induced intracerebral hemorrhage at 100 mg/kg, po pretreated with collagenase for 20 mins followed by compound administration via oral gavage and measured at 24 hrs; assay type: functional, organism-based
Mus musculus [13] = experiment: Effect on hematoma size in male ddY mouse model of collagenase induced intracerebral hemorrhage at 100 mg/kg, po pretreated with collagenase for 20 mins followed by compound administration via oral gavage and measured at 24 hrs; assay type: functional, organism-based
[14] = Solubility of compound at >10 uM; assay type: physicochemical

Which Activity (Peritoneal macrophage [1]) does the source give for `CC1(C)C(=O)CC[C@]2(C)[C@H]3C(=O)C=C4[C@@H]5C[C@@](C)(C(=O)O)CC[C@]5(C)C[C@H](O)[C@@]4(C)[C@]3(C)CC[C@@H]12` here?
The Activity was “inactive”.

And the Activity (RAW264.7 [2])?
Its Activity is “Toxic”.

For `CC1(C)[C@@H](O)CC[C@]2(C)[C@H]3C(=O)C=C4[C@@H]5C[C@@](C)(C(=O)O)CC[C@]5(C)CC[C@@]4(C)[C@]3(C)CC[C@@H]12` [ENOXOLONE], which Activity (RAW264.7 [3]) is on record?
Its Activity is “Toxic”.

With `CC1(C)[C@@H](O[C@H]2O[C@H](C(=O)O)[C@@H](O)[C@H](O)[C@H]2O[C@@H]2O[C@H](C(=O)O)[C@@H](O)[C@H](O)[C@H]2O)CC[C@]2(C)[C@H]3C(=O)C=C4[C@@H]5C[C@@](C)(C(=O)O)CC[C@]5(C)CC[C@@]4(C)[C@]3(C)CC[C@@H]12` as the molecule, how does the Activity (Peritoneal macrophage [1]) read?
Its Activity is “Active”.

For `C[C@]12CCC(=O)C=C1CC[C@@H]1[C@@H]2[C@@H](O)C[C@@]2(C)[C@H]1CC[C@]2(O)C(=O)CO`, which Activity (Peritoneal macrophage [4]) is on record?
Its Activity is “inactive”.

Which Activity (RAW264.7 [2]) does the source give for `CC1(C)C(=O)CC[C@]2(C)[C@H]3C(=O)C=C4[C@@H]5C[C@@](C)(C(=O)O)CC[C@]5(C)CC[C@@]4(C)[C@]3(C)CC[C@@H]12` here?
Its Activity is “Toxic”.

Which Activity (Peritoneal macrophage [1]) does the source give for `CC1(C)[C@@H](O)CC[C@]2(C)[C@H]3C(=O)C=C4[C@@H]5C[C@@](C)(C(=O)O)CC[C@]5(C)C[C@H](O)[C@@]4(C)[C@]3(C)CC[C@@H]12` here?
Its Activity is “inactive”.

What does the source list for `COC(=O)[C@@]1(C)CC[C@]2(C)CC[C@]3(C)C(=CC(=O)[C@@H]4[C@@]5(C)CCC(=O)C(C)(C)[C@@H]5CC[C@]43C)[C@@H]2C1`?
Activity (Peritoneal macrophage [1]): Active; Retention_time [5]: 11.3 min; Activity (Mus musculus [6]): inactive; Activity (Mus musculus [7]): Active; Activity (Mus musculus [8]): Dose-Dependent Effect; inhibition (Mus musculus [9]): Active; inhibition (Mus musculus [10]): Active; Activity (Peritoneal macrophage [11]): Active; Activity (Mus musculus [12]): inactive; Activity (Mus musculus [13]): inactive; solubility [14]: Insoluble
